This note sets out measurements from patent US20250084092A1, “ANNULATED PYRIDAZINE COMPOUND” (Nico Therapeutics, Inc., priority 2021, published 2025).

pIC50: −log10 of the molar value. Structures can show the parent of a compound that is named as a salt.

For this assay, the target named is T1, NLRP3 inflammasome (Homo sapiens, UniProt Q96P20).
T1 construct: endogenous in cells; host or cells: THP-1 cells (PMA-differentiated, stimulated with LPS and ATP)
Briefly: THP-1 IL-1β production inhibition test. Type of assay: cell-based. Particulars: PMA-treated THP-1 cells, LPS 50 ng/mL + ATP 5 mM, 2 hours, IL-1β in supernatant by ELISA. The protocol: PMA (phorbol myristate acetate, SIGMA, P1585) was added to THP-1 cells in an amount of 50 ng/mL to culture the cells for 2 days at 37° C. […] LPS (Lipopolysaccharide, SIMGA, L2880) and ATP (Adenosine triphosphate, SIGMA, A2383) were added so that final concentrations become 50 ng/mL and 5 mM, respectively, followed by culturing at 37° C. for 2 hours. The supernatants were collected to measure the concentrations of IL-1β by ELISA (DuoSet ELISA human IL-1β, R&D Systems, DY201). The IL-1β concentrations were plotted against log concentrations of test compounds, and an IC50 value was calculated by sigmoid Emax model nonlinear regression analysis.

T1 sequence (Q96P20 whole entry): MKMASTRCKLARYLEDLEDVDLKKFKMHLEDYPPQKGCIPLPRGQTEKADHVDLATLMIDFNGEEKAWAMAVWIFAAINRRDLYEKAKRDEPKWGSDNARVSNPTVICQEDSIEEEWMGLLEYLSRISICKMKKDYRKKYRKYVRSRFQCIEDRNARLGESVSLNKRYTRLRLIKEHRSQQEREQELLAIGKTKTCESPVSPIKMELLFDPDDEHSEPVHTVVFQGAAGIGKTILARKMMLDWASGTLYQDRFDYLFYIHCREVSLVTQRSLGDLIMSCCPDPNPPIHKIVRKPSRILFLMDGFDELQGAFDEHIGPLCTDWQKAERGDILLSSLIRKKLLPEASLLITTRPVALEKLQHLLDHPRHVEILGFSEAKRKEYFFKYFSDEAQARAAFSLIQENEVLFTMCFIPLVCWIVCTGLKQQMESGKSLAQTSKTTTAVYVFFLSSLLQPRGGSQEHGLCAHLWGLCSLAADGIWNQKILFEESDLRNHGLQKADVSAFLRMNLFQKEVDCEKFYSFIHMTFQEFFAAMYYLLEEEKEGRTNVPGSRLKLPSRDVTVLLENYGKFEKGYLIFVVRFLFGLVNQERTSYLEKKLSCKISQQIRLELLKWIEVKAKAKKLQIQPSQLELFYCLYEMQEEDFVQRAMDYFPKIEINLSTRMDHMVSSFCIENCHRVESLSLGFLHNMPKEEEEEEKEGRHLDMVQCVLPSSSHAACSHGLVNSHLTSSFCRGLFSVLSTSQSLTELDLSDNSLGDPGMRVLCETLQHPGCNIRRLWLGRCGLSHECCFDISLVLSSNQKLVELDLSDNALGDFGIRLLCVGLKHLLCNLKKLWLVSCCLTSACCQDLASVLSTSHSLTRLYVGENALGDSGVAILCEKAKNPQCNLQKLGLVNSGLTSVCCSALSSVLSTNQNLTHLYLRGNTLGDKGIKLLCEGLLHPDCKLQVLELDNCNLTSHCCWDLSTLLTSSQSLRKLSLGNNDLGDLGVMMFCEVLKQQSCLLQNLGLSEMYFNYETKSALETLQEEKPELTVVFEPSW

What is called pIC50 is the negative decadic logarithm of the IC50, by convention in mol/L. As to `Oc1cc(OC(F)(F)F)ccc1-c1nnc(N[C@@H]2CCCC[C@@H]2O)c2c1CCOC2` [Example 127, 2-(4-{[(1R,2S)-2-hydroxycyclohexyl]amino}-7,8-dihydro-5H-pyrano[3,4-d]pyridazin-1-yl)-5-(trifluoromethoxy)phenol], the pIC50 was 8.25.

For the molecule `CN1CCC[C@@H](Nc2nnc(-c3ccc(C(F)(F)F)cc3O)c3c2CSC3)C1` [Example 121], the pIC50 was 8.07.

For `Oc1cc(C(F)(F)F)ccc1-c1nnc(NC[C@H]2CCCO2)c2ccccc12` [Example 14], the pIC50 is 8.12.

For `C[C@]1(O)C[C@@H](Nc2nnc(-c3ccc(C(F)(F)F)cc3O)c3c2CCCCC3)C1` [Example 48], the pIC50 is 7.44.

For the molecule `Oc1cc(C(F)(F)F)ccc1-c1nnc(NCC2(O)CCC2)c2ccccc12` [Example 12], the pIC50 was 7.24.

Consider `C[C@@H](O)CNc1nnc(-c2ccc(C(F)(F)F)cc2O)c2c1[C@H]1CC[C@@H]2CC1` [Example 24], for which the pIC50 was 7.13.

Turning to `Oc1cc(C(F)(F)F)ccc1-c1nnc(N[C@@H]2CCCC[C@H]2O)c2c1CCC2` [Example 19], the pIC50 was 7.09.

Take `CC(=O)N1CCC[C@@H](Oc2nnc(-c3ccc(C(F)(F)F)cc3O)c3ccccc23)C1` [Example 65]: the pIC50 was 7.32.

For `Cc1ccc(-c2nnc(N[C@@H]3CCCC[C@@]3(C)O)c3c2CCCC3)c(O)c1` [Example 55], the pIC50 is 7.44.

On to `C[C@@]1(O)CCCC[C@H]1Nc1nnc(-c2ccc(OC(F)F)cc2O)c2c1CCCC2` [Example 89], for which the pIC50 was 7.51.

For the molecule `Oc1cc(C(F)(F)F)ccc1-c1nnc(N[C@@H]2CCCNC2)c2c1CCCC2` [Example 96, 2-(4-{[(3R)-piperidin-3-yl]amino}-5,6,7,8-tetrahydrophthalazin-1-yl)-5-(trifluoromethyl)phenol], the pIC50 was 7.35.

Turning to `O=S1(=O)CCC(Oc2nnc(-c3ccc(C(F)(F)F)cc3O)c3ccccc23)CC1` [Example 10], the pIC50 was 7.62.

For the molecule `N#C[C@@H]1CCCC[C@H]1Nc1nnc(-c2ccc(C(F)(F)F)cc2O)c2c1COCC2` [72(1)], the pIC50 was 7.57.

On to `CN1CCC[C@@H](Nc2nnc(-c3ccc(OC(F)F)cc3O)c3c2CCOC3)C1` [Example 120], for which the pIC50 is 9.00.

Regarding `Oc1cc(C2CC2)ccc1-c1nnc(N[C@@H]2CCCC[C@H]2O)c2c1COCC2` [52(2)], the pIC50 was 7.57.

Consider `CN1CCC[C@@H](Nc2nnc(-c3ccc(C(F)(F)F)cc3O)c3c2CSC3(C)C)C1` [Example 123], for which the negative-log IC50 (pIC50) is 7.33.

As to `N#C[C@@H]1CCCC[C@H]1Nc1nnc(-c2ccc(C(F)(F)F)cc2O)c2c1CCOC2` [72(2)], the negative logarithm of the IC50 (pIC50) is 7.85.

Turning to `Cc1ccc(-c2nnc(N[C@@H]3CCCC[C@H]3O)c3c2CCN(C)C3)c(O)c1` [Example 77], the pIC50 is 7.48.

As to `Cc1ccc(-c2nnc(NCCCO)c3c2CCCC3)cc1` [Example 6], the pIC50 is 5.05.

Take `C[C@@H](O)CCc1nnc(-c2ccc(C(F)(F)F)cc2O)c2c1CCCC2` [Example 20]: the negative-log IC50 (pIC50) is 7.66.

Take `Oc1cc(C(F)F)ccc1-c1nnc(N[C@@H]2CCCC[C@H]2O)c2c1CCCC2` [Example 84]: the pIC50 is 7.74.

Take `C[C@@H](O)CNc1nnc(-c2ccc(C(F)(F)F)cc2C(F)(F)F)c2c1CN(S(C)(=O)=O)CC2` [Example 80, (2R)-1-({1-[2,4-bis(trifluoromethyl)phenyl]-6-(methanesulfonyl)-5,6,7,8-tetrahydropyrido[3,4-d]pyridazin-4-yl}amino)propan-2-ol]: the pIC50 is 5.28.

Take `COc1ccc(-c2nnc(N[C@@H]3CCOC[C@H]3O)c3c2CCCCC3)c(O)c1` [Example 49]: the pIC50 was 7.66.

With `Oc1cc(OC(F)(F)F)ccc1-c1nnc(N[C@@H]2CCCC[C@H]2O)c2c1COCC2` [3(2), 2-(1-{[(1R,2R)-2-hydroxycyclohexyl]amino}-7,8-dihydro-5H-pyrano[3,4-d]pyridazin-4-yl)-5-(trifluoromethoxy)phenol], the pIC50 was 8.15.

`C[C@@H](O)CNc1nnc(-c2ccc(C(F)(F)F)cc2O)c2ccncc12` [16(1)]: the pIC50 is 8.72.

On to `C[C@@]1(O)CCCC[C@H]1Nc1nnc(-c2ccc(C(F)(F)F)cc2O)c2c1CCCC2` [Example 53], for which the pIC50 is 7.82.

Regarding `C[C@@H](O)CNc1nnc(-c2ccc(C(F)(F)F)cc2O)c2cnccc12` [16(2)], the pIC50 is 7.70.

`C[C@]1(O)C[C@@H](Nc2nnc(-c3ccc(Cl)cc3O)c3c2CCCC3)C1` [Example 30]: the pIC50 was 7.66.

As for `C[C@]1(O)C[C@@H](Nc2nnc(-c3ccc(OC(F)(F)F)cc3O)c3c2COCC3)C1` [57(1)], the pIC50 was 7.72.

For `COc1ccc(-c2nnc(N[C@@H]3CCCC[C@H]3O)c3c2CCCC3)c(O)c1` [Example 28], the pIC50 is 7.85.

With `Oc1cc(C(F)(F)F)ccc1-c1nnc(N[C@@H]2CCCC[C@H]2O)c2c1CCCO2` [Example 41], the pIC50 was 7.40.

For the molecule `COc1ccc(-c2nnc(N[C@H]3C[C@@](C)(O)C3)c3c2CCCC3)c(O)c1` [Example 33], the pIC50 was 7.00.

For `OCC1(CNc2nnc(-c3ccc(C(F)(F)F)cc3O)c3ccccc23)CC1` [Example 13], the pIC50 was 7.82.

For the molecule `CC(=O)N1CCc2c(-c3ccc(C(F)(F)F)cc3O)nnc(N[C@@H]3CCCC[C@H]3O)c2C1` [Example 92, 1-[4-{[(1R,2R)-2-hydroxycyclohexyl]amino}-1-[2-hydroxy-4-(trifluoromethyl)phenyl]-7,8-dihydropyrido[3,4-d]pyridazin-6(5H)-yl]ethan-1-one], the pIC50 was 7.33.

For the molecule `Oc1cc(C(F)(F)F)ccc1-c1nnc(N[C@@H]2CCCN(C3COC3)C2)c2c1CCCC2` [Example 97, 2-(4-{[(3R)-1-(oxetan-3-yl)piperidin-3-yl]amino}-5,6,7,8-tetrahydrophthalazin-1-yl)-5-(trifluoromethyl)phenol], the pIC50 is 8.47.

`CC(C)(O)CNc1nnc(-c2ccc(C(F)(F)F)cc2O)c2c1CCC2` [Example 21]: the pIC50 was 7.09.

For `C[C@@H](O)CCc1nnc(-c2ccc(C(F)(F)F)cc2O)c2c1CCC2` [Example 22], the pIC50 is 7.16.

As to `[O-][S+]1Cc2c(N[C@@H]3CCCC[C@H]3O)nnc(-c3ccc(C(F)(F)F)cc3O)c2C1` (some centres unmarked) [131(2)], the negative logarithm of the IC50 (pIC50) was 7.10.

With `Cc1ccc(-c2nnc(N[C@@H]3CCOC[C@H]3O)c3c2CCCCC3)c(O)c1` [Example 46], the pIC50 was 7.96.

For `Oc1cc(C(F)(F)F)ccc1-c1nnc(N[C@@H]2CCCC[C@H]2O)c2c1CCCCC2` [Example 34], the pIC50 is 8.41.

Consider `Oc1cc(Cl)ccc1-c1nnc(N[C@@H]2CCOC[C@H]2O)c2c1CCCC2` [Example 39], for which the negative logarithm of the IC50 (pIC50) was 7.72.

As for `Cc1cc(O)c(-c2nnc(N[C@@H]3CCCC[C@H]3O)c3c2CCOC3)c(F)c1` [62(1)], the pIC50 was 8.21.

On to `Oc1cc(C(F)F)ccc1-c1nnc(N[C@@H]2CCCC[C@H]2O)c2c1COC2` [Example 115], for which the negative-log IC50 (pIC50) is 7.96.

As to `C[C@@H](O)CNc1nnc(-c2ccc(C(F)(F)F)cc2O)c2c1CCCC2` [Example 17], the pIC50 was 7.70.

In the case of `Oc1cc(C2CC2)ccc1-c1nnc(N[C@@H]2CCCC[C@H]2O)c2c1CCOC2` [52(1)], the pIC50 is 8.39.

For the molecule `C[C@@H](O)CNc1nnc(-c2ccc(C(F)(F)F)cc2C(F)(F)F)c2c1CN(Cc1ccccc1)CC2` [Example 9], the pIC50 is 5.89.

As to `Oc1cc(C(F)(F)F)ccc1-c1nnc(N[C@@H]2CCCC[C@H]2O)c2c1OCCC2` [Example 42], the pIC50 was 7.43.

Consider `Oc1cc(OC(F)(F)F)ccc1-c1nnc(N[C@@H]2CCCC[C@H]2O)c2c1CCCCC2` [Example 43], for which the pIC50 was 8.06.

As to `Oc1cc(C(F)(F)F)ccc1-c1nnc(N[C@@H]2CCCC[C@H]2O)c2c1CCC1(COC1)C2` [Example 107], the negative logarithm of the IC50 (pIC50) is 8.44.

Turning to `CC(=O)N[C@@H]1CCCC[C@H]1Nc1nnc(-c2ccc(C(F)(F)F)cc2O)c2ccccc12` [Example 23], the pIC50 is 7.77.

As to `CN1CCC[C@@H](Oc2nnc(-c3ccc(C(F)(F)F)cc3O)c3ccccc23)C1` [Example 67], the pIC50 is 7.89.

For the molecule `Oc1cc(Cl)ccc1-c1nnc(N[C@@H]2CCCC[C@H]2O)c2c1CCCC2` [Example 25], the pIC50 is 8.34.

As for `COc1ccc(-c2nnc(N[C@@H]3CCOC[C@H]3O)c3c2CCCC3)c(O)c1` [Example 38], the pIC50 is 7.27.

Turning to `Oc1cc(C(F)(F)F)ccc1-c1nnc(N[C@@H]2CCCC[C@H]2O)c2c1CCCC2` [Example 134, 2-(4-{[(1R,2R)-2-hydroxycyclohexyl]amino}-5,6,7,8-tetrahydrophthalazin-1-yl)-5-(trifluoromethyl)phenol monohydrochloride], the pIC50 is 8.34.

For the molecule `CN1CCC[C@@H](Nc2nnc(-c3ccc(OC(F)F)cc3O)c3c2COCC3)C1` [Example 136, 5-(difluoromethoxy)-2-(4-{[(3R)-1-methylpiperidin-3-yl]amino}-7,8-dihydro-5H-pyrano[3,4-d]pyridazin-1-yl)phenol dihydrochloride], the pIC50 was 8.66.

As to `Oc1cc(C(F)(F)F)ccc1-c1nnc(N[C@H]2CCC(F)(F)C2)c2ccccc12` [Example 11], the pIC50 is 7.80.

As to `Cc1ccc(-c2nnc(N[C@H]3C[C@@](C)(O)C3)c3c2CCCC3)c(O)c1` [Example 31], the negative-log IC50 (pIC50) was 7.36.

Consider `Oc1cc(C(F)(F)F)ccc1-c1nnc(N[C@@H]2CCCC[C@H]2O)c2c1CCCOC2` [108(2)], for which the pIC50 was 8.52.

On to `Cc1ccc(-c2nnc(N[C@@H]3CCOC[C@H]3O)c3c2CCCC3)c(O)c1` [Example 36], for which the pIC50 was 7.49.
